Measurements: patent US20210284638A1 (Saint Louis University, priority 2018, published 2021)
Counter-ions that a name gives are not always drawn.

Legend:
Format in all cases: binding
[1] = target: T1, Recombinant human integrin αVβ3 (Homo sapiens, UniProt P05106+P06756); assay: Solid Phase Receptor Assay for αVβ3 function; conditions: plate-bound human vitronectin; read-out: αVβ3 SPRA IC50
T1 construct: purchased R&D Systems 3050-AV
Method: C. […] Wells were washed 3 times with 150 μL TBS+ and then 150 μL of blocking buffer (TBS+ with 1% bovine serum albumin, Sigma A7906) was added. The plate was incubated for 1 hr at 37° C. and then washed 3× with TBS+ buffer. […] Compounds were diluted to 20 μM and then 1 μL was added to each well of the plate according to a standard template with each sample repeated in triplicate. After incubation for two hours at room temperature, the plate was washed 3× with 150 μL of TBS+ buffer. To each well, 50 μL of biotinylated anti-αV antibody (R&D Systems, BAF1219) at 0.5 μg/mL in TBS+/0.1% BSA were added and the plate covered and incubated for 1 hr at room temperature. After washing the plate 3× with 150 μL of TBS+ buffer, 50 μL of streptavidin-conjugated horseradish peroxidase (R&D Systems, DY998) diluted in TBS+ blocking buffer were added to the wells and the plate incubated for 20 min at room temperature. The plate was washed 3× with TBS+ buffer followed by 50 μL of TMB substrate (Sigma, T4444) added to each well in the dark and the plate was incubated for 25 min at room temperature. 25 μL of 1.0 M phosphoric acid was added as a stop solution and the plates were read at 450 nm using a Spectramax plate reader.

[2] = target: T2, Recombinant human integrin αVβ8 (Homo sapiens, UniProt P06756+P26012); assay: Solid Phase Receptor Assay for αVβ8 function; conditions: plate-bound human LAP; read-out: αVβ8 SPRA IC50
T2 construct: purchased R&D Systems 4135-AV
T2 sequence (P06756 31-992 limits assumed): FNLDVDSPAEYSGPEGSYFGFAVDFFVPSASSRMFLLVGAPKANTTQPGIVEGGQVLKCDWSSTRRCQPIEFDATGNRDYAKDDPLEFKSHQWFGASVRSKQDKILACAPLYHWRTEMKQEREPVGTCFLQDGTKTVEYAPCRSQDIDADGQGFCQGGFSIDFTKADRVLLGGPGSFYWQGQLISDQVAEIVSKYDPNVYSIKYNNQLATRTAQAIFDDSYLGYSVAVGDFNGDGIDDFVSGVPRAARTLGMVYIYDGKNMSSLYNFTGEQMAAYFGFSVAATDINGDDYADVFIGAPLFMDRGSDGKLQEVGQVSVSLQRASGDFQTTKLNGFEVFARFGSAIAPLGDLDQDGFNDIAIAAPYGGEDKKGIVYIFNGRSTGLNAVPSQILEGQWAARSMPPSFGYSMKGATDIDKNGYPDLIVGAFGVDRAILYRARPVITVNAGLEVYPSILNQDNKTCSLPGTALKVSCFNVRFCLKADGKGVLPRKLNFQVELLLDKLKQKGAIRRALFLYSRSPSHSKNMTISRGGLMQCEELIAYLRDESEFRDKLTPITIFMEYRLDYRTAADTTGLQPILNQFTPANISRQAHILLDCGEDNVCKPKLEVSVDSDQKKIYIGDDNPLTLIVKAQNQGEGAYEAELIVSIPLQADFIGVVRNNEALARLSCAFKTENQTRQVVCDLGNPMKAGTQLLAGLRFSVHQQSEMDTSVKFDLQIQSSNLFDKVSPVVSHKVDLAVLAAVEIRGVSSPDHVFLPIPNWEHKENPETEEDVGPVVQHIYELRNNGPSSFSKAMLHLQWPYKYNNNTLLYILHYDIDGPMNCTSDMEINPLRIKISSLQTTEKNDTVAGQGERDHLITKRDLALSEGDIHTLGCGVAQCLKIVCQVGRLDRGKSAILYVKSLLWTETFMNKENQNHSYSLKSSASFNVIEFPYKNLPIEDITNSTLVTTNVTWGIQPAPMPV
T2 sequence (P26012 43-684 limits assumed): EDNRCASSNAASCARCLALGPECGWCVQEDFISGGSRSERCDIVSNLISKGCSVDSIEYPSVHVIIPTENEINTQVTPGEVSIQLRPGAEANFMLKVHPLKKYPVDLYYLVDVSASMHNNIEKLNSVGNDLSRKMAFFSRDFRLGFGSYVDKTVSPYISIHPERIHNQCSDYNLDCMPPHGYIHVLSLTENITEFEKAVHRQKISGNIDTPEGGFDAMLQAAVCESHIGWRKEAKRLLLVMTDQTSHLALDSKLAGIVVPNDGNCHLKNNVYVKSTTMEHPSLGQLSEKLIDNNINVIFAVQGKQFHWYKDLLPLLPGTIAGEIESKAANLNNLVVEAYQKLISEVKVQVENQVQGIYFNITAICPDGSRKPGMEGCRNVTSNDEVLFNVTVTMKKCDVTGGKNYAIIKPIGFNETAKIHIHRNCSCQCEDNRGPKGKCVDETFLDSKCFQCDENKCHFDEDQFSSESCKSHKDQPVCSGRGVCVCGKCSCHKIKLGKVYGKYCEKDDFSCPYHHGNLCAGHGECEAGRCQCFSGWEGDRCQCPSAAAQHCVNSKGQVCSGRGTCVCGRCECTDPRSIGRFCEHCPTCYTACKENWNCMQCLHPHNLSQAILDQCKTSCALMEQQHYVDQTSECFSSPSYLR
Method: F. Solid Phase Receptor Assay (SFRA) for αVβ8 Function
Wells were washed 3 times with 150 μL TBS+ and then 150 μL of blocking buffer (TBS+ with 1% bovine serum albumin, Sigma A7906) was added. The plate was incubated for 1 hr at 37° C. and then washed 3× with TBS+. […] Compounds were diluted to 20 μM and 1 μL was added to each well of the plate according to a standard template with each sample repeated in triplicate. After incubation for two hours at room temperature, the plate was washed 3× with 150 μL of TBS+. To each well, 50 μL of biotinylated anti-αV antibody (R&D Systems, BAF1219) at 1 μg/mL in TBS+/0.1% BSA were added and the plate was covered and incubated for 1 hr at room temperature. After washing the plate 3× with 150 μL of TBS+ buffer, 50 μL of streptavidin-conjugated horseradish peroxidase (R&D Systems, DY998) diluted in TBS+ blocking buffer were added to the wells and the plate incubated for 20 min at room temperature. The plate was washed 3× with TBS+ followed by 50 μL of TMB substrate (Sigma T4444) added to each well in the dark and the plate incubated for 10 min at room temperature. 25 μL of 1.0 M phosphoric acid was added as a stop solution and the plates were read at 450 nm using a Spectramax plate reader.

[3] = target: T3, Recombinant human integrin αVβ5 (Homo sapiens, UniProt P06756+P18084); assay: Solid Phase Receptor Assay (SPRA) for αVβ5 function; conditions: plate-bound human vitronectin
T3 construct: purchased R&D Systems 2528-AV
T3 sequence (P06756 31-992 limits assumed): as the sequence (P06756 31-992 limits assumed) above
T3 sequence (P18084 24-719 limits assumed): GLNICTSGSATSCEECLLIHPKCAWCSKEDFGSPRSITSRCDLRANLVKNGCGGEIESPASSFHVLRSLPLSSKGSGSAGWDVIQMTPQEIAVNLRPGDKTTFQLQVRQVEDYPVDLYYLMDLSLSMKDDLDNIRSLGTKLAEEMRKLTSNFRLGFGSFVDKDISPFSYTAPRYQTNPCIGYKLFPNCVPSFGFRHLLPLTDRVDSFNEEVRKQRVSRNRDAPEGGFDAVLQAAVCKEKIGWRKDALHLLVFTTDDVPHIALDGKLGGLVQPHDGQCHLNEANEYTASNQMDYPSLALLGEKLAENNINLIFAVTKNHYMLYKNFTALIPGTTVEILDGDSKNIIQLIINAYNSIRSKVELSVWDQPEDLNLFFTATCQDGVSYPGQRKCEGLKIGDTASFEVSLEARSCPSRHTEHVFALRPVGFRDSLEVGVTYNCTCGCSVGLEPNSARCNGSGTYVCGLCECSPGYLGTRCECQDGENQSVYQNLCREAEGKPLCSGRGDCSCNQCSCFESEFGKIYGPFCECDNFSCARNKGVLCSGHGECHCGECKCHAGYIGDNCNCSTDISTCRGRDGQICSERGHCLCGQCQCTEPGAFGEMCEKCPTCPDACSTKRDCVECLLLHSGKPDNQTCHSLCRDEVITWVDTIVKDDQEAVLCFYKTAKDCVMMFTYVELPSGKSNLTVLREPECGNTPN
Method: D. Solid Phase Receptor Assay (SPRA) for αVβ5 Function
Wells were washed 3 times with 150 μL TBS+ and then 150 μL of blocking buffer (TBS+ with 1% bovine serum albumin, Sigma A7906) was added. The plate was incubated for 1 hr at 37° C. and then washed 3× with TBS+ buffer. […] Compounds were diluted to 20 μM and then 1 μL was added to each well of the plate according to a standard template with each sample repeated in triplicate. After incubation for two hours at room temperature, the plate was washed 3× with 150 μL of TBS+ buffer. To each well, 50 μl of biotinylated anti-αV antibody (R&D Systems, BAF1219) at 0.5 μg/mL in TBS+/0.1% BSA at 0.5 μg/mL were added and the plate covered and incubated for 1 hr at room temperature. After washing the plate 3× with 150 μL of TBS+ buffer, 50 μL of streptavidin-conjugated horseradish peroxidase (R&D Systems, DY998) diluted in TBS+ blocking buffer were added to the wells and the plate incubated for 20 min at room temperature. The plate was washed 3× with TBS+ buffer followed by 50 μL of TMB substrate (Sigma T4444) added to each well in the dark and the plate incubated for 5 min at room temperature. 25 μL of 1.0 M phosphoric acid was added as a stop solution and the plates were read at 450 nm using a Spectramax plate reader.

[4] = target: T4, Recombinant human integrin α5β1 (Homo sapiens, UniProt P05556+P08648); assay: Solid Phase Receptor Assay (SPRA) for α5β1 function; conditions: plate-bound human fibronectin
T4 construct: purchased R&D Systems 3230-A5
T4 sequence (P08648 42-995 limits assumed): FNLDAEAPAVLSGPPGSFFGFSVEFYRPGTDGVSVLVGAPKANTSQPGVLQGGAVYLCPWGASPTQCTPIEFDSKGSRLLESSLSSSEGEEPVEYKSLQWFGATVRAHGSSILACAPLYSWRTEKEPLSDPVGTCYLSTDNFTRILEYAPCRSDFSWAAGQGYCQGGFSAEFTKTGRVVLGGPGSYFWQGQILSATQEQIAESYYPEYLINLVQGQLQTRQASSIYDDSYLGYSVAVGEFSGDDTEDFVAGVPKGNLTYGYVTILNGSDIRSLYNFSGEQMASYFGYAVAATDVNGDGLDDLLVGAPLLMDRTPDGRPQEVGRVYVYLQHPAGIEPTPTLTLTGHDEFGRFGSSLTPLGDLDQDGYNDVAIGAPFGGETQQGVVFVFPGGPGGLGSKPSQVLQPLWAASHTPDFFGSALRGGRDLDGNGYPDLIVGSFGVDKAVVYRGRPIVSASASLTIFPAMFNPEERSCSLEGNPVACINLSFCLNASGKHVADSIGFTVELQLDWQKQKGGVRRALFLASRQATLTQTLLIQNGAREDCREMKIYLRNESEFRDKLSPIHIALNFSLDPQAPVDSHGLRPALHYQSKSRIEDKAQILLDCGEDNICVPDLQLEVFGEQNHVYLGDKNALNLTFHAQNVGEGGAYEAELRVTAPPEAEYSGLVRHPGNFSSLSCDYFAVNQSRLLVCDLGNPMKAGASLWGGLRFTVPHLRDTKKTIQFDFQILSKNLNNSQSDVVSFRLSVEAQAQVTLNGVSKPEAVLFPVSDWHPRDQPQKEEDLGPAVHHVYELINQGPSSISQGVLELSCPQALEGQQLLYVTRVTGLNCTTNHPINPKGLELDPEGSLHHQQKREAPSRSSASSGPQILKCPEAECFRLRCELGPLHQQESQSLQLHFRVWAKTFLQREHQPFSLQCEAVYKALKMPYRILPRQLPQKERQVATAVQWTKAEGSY
T4 sequence (P05556 21-728 limits assumed): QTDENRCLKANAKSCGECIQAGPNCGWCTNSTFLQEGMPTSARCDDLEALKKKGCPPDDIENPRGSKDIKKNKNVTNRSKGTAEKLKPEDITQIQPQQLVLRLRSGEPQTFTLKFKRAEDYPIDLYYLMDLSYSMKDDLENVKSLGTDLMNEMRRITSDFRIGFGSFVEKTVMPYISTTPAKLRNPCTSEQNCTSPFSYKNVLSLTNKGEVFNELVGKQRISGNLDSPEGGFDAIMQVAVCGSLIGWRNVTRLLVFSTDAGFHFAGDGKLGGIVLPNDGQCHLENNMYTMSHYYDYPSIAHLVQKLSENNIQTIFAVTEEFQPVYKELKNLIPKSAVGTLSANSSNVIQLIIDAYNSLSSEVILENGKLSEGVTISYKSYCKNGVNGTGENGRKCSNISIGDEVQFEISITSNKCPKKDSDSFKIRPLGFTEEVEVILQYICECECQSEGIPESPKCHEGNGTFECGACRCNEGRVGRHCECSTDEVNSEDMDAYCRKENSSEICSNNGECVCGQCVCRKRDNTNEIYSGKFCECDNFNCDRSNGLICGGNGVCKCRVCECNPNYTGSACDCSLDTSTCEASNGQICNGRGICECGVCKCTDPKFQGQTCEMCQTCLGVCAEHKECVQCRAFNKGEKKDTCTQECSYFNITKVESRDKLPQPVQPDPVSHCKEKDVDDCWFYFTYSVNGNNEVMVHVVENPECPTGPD
Method: A. Solid Phase Receptor Assay (SPRA) for α5β1 Function
Wells were washed 3 times with 150 μL TBS+ and then 150 μL of blocking buffer (TBS+ with 1% bovine serum albumin, Sigma A7906) was added. The plate was incubated for 1 hr at 37° C. and then washed 3× with TBS+ buffer. […] Compounds were diluted to 20 μM and then 1 μL was added to each well of the plate according to a standard template with each sample repeated in triplicate. After incubation for two hours at room temperature, the plate was washed 3× with 150 μL of TBS+ buffer. To each well, 50 μL of biotinylated anti-α5 antibody (R&D Systems, BAF1864) at 0.5 μg/mL in TBS+/0.1% BSA were added and the plate covered and incubated for 1 hr at room temperature. After washing the plate 3× with 150 μL of TBS+ buffer, 50 μL of streptavidin-conjugated horseradish peroxidase (R&D Systems, DY998) diluted in TBS+ blocking buffer were added to the wells and the plate incubated for 20 min at room temperature. The plate was washed 3× with TBS+ buffer followed by 50 μL of room temperature TMB substrate (Sigma, T4444) added to each well in the dark and the plate incubated for 25 min at room temperature. 25 μL of 1.0 M phosphoric acid was added as a stop solution and the plates were read at 450 nm using a Spectramax plate reader.

T1 sequence (P06756 31-992 limits assumed): as the sequence (P06756 31-992 limits assumed) above
T1 sequence (P05106 27-718 limits assumed): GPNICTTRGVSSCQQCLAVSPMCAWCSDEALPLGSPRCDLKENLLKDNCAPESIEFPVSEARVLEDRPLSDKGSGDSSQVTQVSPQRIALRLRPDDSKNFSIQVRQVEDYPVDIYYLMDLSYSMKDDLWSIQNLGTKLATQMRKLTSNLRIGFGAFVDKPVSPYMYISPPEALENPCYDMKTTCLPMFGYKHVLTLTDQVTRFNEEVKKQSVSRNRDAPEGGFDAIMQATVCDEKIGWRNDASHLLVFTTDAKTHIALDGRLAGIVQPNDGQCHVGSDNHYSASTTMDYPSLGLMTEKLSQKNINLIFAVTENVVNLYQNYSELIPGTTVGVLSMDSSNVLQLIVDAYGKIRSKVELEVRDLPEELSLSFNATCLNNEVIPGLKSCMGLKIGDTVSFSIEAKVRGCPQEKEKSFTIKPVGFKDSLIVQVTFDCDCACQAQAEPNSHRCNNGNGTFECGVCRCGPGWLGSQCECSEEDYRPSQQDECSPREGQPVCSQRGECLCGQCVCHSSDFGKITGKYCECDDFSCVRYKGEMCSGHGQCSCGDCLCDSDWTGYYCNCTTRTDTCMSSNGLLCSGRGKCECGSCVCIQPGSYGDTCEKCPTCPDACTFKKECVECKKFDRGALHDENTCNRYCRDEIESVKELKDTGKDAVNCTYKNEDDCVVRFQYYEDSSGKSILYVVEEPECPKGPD

Compound	IC50 [1]	IC50 [2]	IC50 [3]	IC50 [4]
COc1ccc(C2COC2)cc1C(CC(=O)O)Cc1cc(OCCc2ccc3c(n2)NCCC3)n(C)n1 (stereo not shown) [Example 23, 3-[2-methoxy-5-(oxetan-3-yl)phenyl]-4-[1-methyl-5-[2-(5,6,7,8-tetrahydro-1,8-naphthyridin-2-yl)ethoxy]pyrazol-3-yl]butanoic acid]	26 nM	190 nM	29 nM	36 nM
CC(C)(C)c1cc(C(CC(=O)O)Cc2csc(CCCc3ccc4c(n3)NCCC4)n2)cc(C(C)(C)C)c1 (stereo not shown) [Example 27, 3-(3,5-di-tert-butylphenyl)-4-(2-(3-(5,6,7,8-tetrahydro-1,8-naphthyridin-2-yl)propyl)thiazol-4-yl)butanoic acid]	2900 nM	55 nM	1100 nM	43 nM
COc1ccc(C(F)(F)F)cc1C(CC(=O)O)Cc1csc(CCCc2ccc3c(n2)NCCC3)n1 (stereo not shown) [Example 35, 3-[2-methoxy-5-(trifluoromethyl)phenyl]-4-[2-[3-(5,6,7,8-tetrahydro-1,8-naphthyridin-2-yl)propyl]thiazol-4-yl]butanoic acid]	78 nM	51 nM	69 nM	88 nM
Cn1nc(C[C@@H](CC(=O)O)c2cc3c(c(C(C)(C)C)c2)OCO3)cc1OCCc1ccc2c(n1)NCCC2 [Example 47]	1.8 nM	34 nM	0.067 nM	6.2 nM
COc1c(C(C)(C)C)cc(C(CC(=O)O)Cc2cc(OCCc3ccc4c(n3)NCCC4)n(C)n2)cc1C(C)(C)C (stereo not shown) [Example 10, 3-(3,5-di-tert-butyl-4-methoxyphenyl)-4-(1-methyl-5-(2-(5,6,7,8-tetrahydro-1,8-naphthyridin-2-yl)ethoxy)-1H-pyrazol-3-yl)butanoic acid]	410 nM	92 nM	84 nM	15 nM
COc1ccc(C2=CCOCC2)cc1[C@H](CC(=O)O)Cc1csc(CCCc2ccc3c(n2)NCCC3)n1 [Example 37A, (S)-3-(5-(3,6-dihydro-2H-pyran-4-yl)-2-methoxyphenyl)-4-(2-(3-(5,6,7,8-tetrahydro-1,8-naphthyridin-2-yl)propyl)thiazol-4-yl)butanoic acid trifluoroacetate]	160 nM	43 nM	31 nM	17 nM
COc1cc(C(CC(=O)O)Cc2cc(OCCc3ccc4c(n3)NCCC4)n(C)n2)cc(C23CC4CC(CC(C4)C2)C3)c1OC (stereo not shown) [Example 14, 3-[3-(1-adamantyl)-4,5-dimethoxy-phenyl]-4-[1-methyl-5-[2-(5,6,7,8-tetrahydro-1,8-naphthyridin-2-yl)ethoxy]pyrazol-3-yl]butanoic acid]	9 nM	170 nM	9 nM	47 nM
CC(C)c1cc(C#N)cc(C(CC(=O)O)Cc2cc(OCCc3ccc4c(n3)NCCC4)n(C)n2)c1 (stereo not shown) [Example 2, 3-(3-cyano-5-isopropylphenyl)-4-(1-methyl-5-(2-(5,6,7,8-tetrahydro-1,8-naphthyridin-2-yl)ethoxy)-1H-pyrazol-3-yl)butanoic acid trifluoroacetic acid]	6 nM	7 nM	0.3 nM	7 nM
COc1c(C(C)C)cc(C(CC(=O)O)Cc2cc(OCCc3ccc4c(n3)NCCC4)n(C)n2)cc1C(C)C (stereo not shown) [Example 25, 3-(3,5-diisopropyl-4-methoxy-phenyl)-4-[1-methyl-5-[2-(5,6,7,8-tetrahydro-1,8-naphthyridin-2-yl)ethoxy]pyrazol-3-yl]butanoic acid]	37 nM	18 nM	78 nM	2 nM
Cn1nc(CC(CC(=O)O)c2cc(C(C)(C)C)ccc2OC(F)(F)F)cc1OCCc1ccc2c(n1)NCCC2 (stereo not shown) [Example 20, 3-(5-(tert-butyl)-2-(trifluoromethoxy)phenyl)-4-(1-methyl-5-(2-(5,6,7,8-tetrahydro-1,8-naphthyridin-2-yl)ethoxy)-1H-pyrazol-3-yl)butanoic acid]	880 nM	67 nM	590 nM	9 nM
Cn1nc(CC(CC(=O)O)c2cc(Cl)cc(C(C)(C)C#N)c2)cc1OCCc1ccc2c(n1)NCCC2 (stereo not shown) [Example 8, 3-(3-chloro-5-(2-cyanopropan-2-yl)phenyl)-4-(1-methyl-5-(2-(5,6,7,8-tetrahydro-1,8-naphthyridin-2-yl)ethoxy)-1H-pyrazol-3-yl)butanoic acid]	3 nM	3 nM	0.3 nM	3 nM
COc1ccc(C(C)(C)O)cc1C(CC(=O)O)Cc1cc(OCCc2ccc3c(n2)NCCC3)n(C)n1 (stereo not shown) [Example 22, 3-(5-(2-hydroxypropan-2-yl)-2-methoxyphenyl)-4-(1-methyl-5-(2-(5,6,7,8-tetrahydro-1,8-naphthyridin-2-yl)ethoxy)-1H-pyrazol-3-yl)butanoic acid]	5 nM	79 nM	10 nM	2 nM
CC(C)(C)c1ccc(Br)c(C(CC(=O)O)Cc2csc(CCCc3ccc4c(n3)NCCC4)n2)c1 (stereo not shown) [Example 34]	2500 nM	140 nM	360 nM	69 nM
COc1ccc(S(F)(F)(F)(F)F)cc1C(CC(=O)O)Cc1cc(OCCc2ccc3c(n2)NCCC3)n(C)n1 (stereo not shown) [Example 24, 3-[2-methoxy-5-(pentafluoro-sulfanyl)phenyl]-4-[1-methyl-5-[2-(5,6,7,8-tetrahydro-1,8-naphthyridin-2-yl)ethoxy]pyrazol-3-yl]butanoic acid]	130 nM	33 nM	96 nM	25 nM
CC(C)c1cc(C(C)C)cc(C(CC(=O)O)Cc2cc(OCCc3ccc4c(n3)NCCC4)n(C)n2)c1 (stereo not shown) [Example 4, 3-(3,5-diisopropylphenyl)-4-[1-methyl-5-[2-(5,6,7,8-tetrahydro-1,8-naphthyridin-2-yl)ethoxy]pyrazol-3-yl]butanoic acid]	15 nM	18 nM	6 nM	4 nM
O=C(O)CC(Cc1cc(OCCc2ccc3c(n2)NCCC3)[nH]n1)c1cccc(F)c1 (stereo not shown) [CC2, reference compound]	3.1 nM	680 nM	0.2 nM	770 nM
